Test results taken from US20050214412A1, “APPARATUS AND METHOD FOR DELIVERING NUTRITIONAL SUPPLEMENTS WITH BEVERAGE SWEETENERS” (priority 2004, published 2005).

Test: Proton NMR stability check in deuterium oxide after heating and after sunlight exposure
Format: physicochemical
Settings: with table sugar, Equal, Sweet'N Low and Splenda
Procedure: All ^1H NMR spectra were obtained on a Varian Mercury 300 NMR spectrometer operating at ambient temperature. Solutions were prepared in deuterium oxide solvent (isotopically labeled water). Samples were prepared by dissolving a measured amount of solid in sufficient solvent to produce a total volume of approximately 1 mL. Initial samples were prepared just before spectra were obtained in order to minimize possible premature hydrolysis or attack by microbes in the case of sugar solutions. Samples were later re-examined after heating at 70.0 to 92.0° C. (158 to 198° F.) for 98 minutes and then again after being stored outside on the roof exposed to Central Florida sunlight and heat for 47.3 hours.

chemical compatibility with sweeteners: chemically compatible
SMILES: O=C1O[C@H]([C@@H](O)CO)C(O)=C1O [Vit. C, ascorbic acid]
